From patent US20080220446A1, “Method for Detecting and/or Removing Protein and/or Peptide Comprising a Cross-Beta Structure From an Aqueous Solution Comprising a Protein” (priority 2005, published 2008)

Legend:
fibronectin F4,5 = target: T1, fibronectin F4,5 (Homo sapiens, UniProt P02751); experiment: Affinity determination ELISA, fibronectin F4,5 on coated (mis)folded proteins; format: binding; conditions: coated protein as labelled
T1 construct: human fibronectin finger 4,5 (Fn F4,5) fragment; made in house; host or cells: HEK293E
From the text: (§1) Synthetic genes of human BiP, human fibronectin finger 4,5 (Fn F4,5) fragment, and human tissue-type plasminogen activator finger EGF (tPA F-EGF) fragment were ordered from Geneart (Regensburg, Germany). These DNA constructs were digested using BamHI and NotI, and ligated into vector pABC674 (ABC-expression facility, Utrecht University, The Netherlands), which contains a carboxy-terminal FLAG-tag—His-tag. HEK293E cells were transiently transfected with these constructs using the polyethylene-imine method, and grown for 5-6 days.
(§2) Denatured proteins and their native controls BSA (Sigma, A7906), glycated BSA, Hb (Sigma, H7605), glycated Hb, ovalbumin (Sigma, A6741), heat-denatured misfolded ovalbumin, human γ-globulins (Sigma, G4386), heat-denatured misfolded γ-globulins, alkyl-γ-globulins, lysozyme (ICN Biochemicals, 100831) and alkyl-lysozyme were coated on ELISA plates (Greiner Microlon high-binding, 655092) in 50 mM NaHCO3-buffer pH 9.6. The plates were blocked using Blocking reagent (Roche 1112589). […] Bound protein is detected by the FLAG-tag using 1:3000 anti-FLAG-HRP (Sigma A-8592) in PBS-T, or by 1:1000 Ni-NTA-HRP (Qiagen 34530) in PBS-T. The HRP reaction Is performed using the TMB substrate (Biosource 4501103 or Tebu Bio 101TMB100-500), stopped using 10% H2SO4 and absorbance was measured at 450 nm.

BiP = target: T2, BiP (Homo sapiens, UniProt P11021); experiment: Affinity determination ELISA, BiP on coated (mis)folded proteins; format: binding; conditions: coated protein as labelled
T2 construct: made in house; host or cells: HEK293E
From the text: as §1, §2

Aβ = target: T3, Aβ (Homo sapiens, UniProt P05067, E693Q); experiment: Binding of Aβ from solution to immobilized ellagic acid; conditions: Nunc Maxisorp, Aβ 100 μg/ml, background subtracted
T3 construct: Human amyloid-β (Ap) (1-40) Dutch type
Description: (§3) To test the ability of ellagic acid to bind to misfolded proteins, ellagic acid was immobilized at 100 μg/ml in the wells of a 96-wells Greiner Microlon high binding plate and a Nunc Maxisorp plate. Ellagic acid was coated in 100 mM NaHCO3 pH 9.6, 50 μp/well, 1 h at room temperature with agitation. As a control for subtraction of background signals of binding of misfolded proteins to wells without ellagic acid, wells were coated with buffer only. After blocking of the plates, wells were overlayed with solutions of 0.1/1/10 μg/ml Hb-AGE or 10/100 μg/ml Aβ, in binding buffer (PBS/0.1% Tween20). After washing, binding of Hb-AGE was assessed by overlaying wells with 1 μg/ml hybridoma antibody 4B5, which binds to glycations (^1), followed by RAMPO. Binding of Aβ was visualized using 500× diluted anti-Aβ antibodies (mouse antibody beta-amyloid Clone 6F/3D #M0872, lot 00003503, DAKOCytomation; β-amyloid (H-43) SC-9129, 200 μg/ml rabbit polyclonal IgG, Santa Cruz Biotechnology) and RAMPO/SWARPO in a 1:1 ratio. Finally, wells were overlayed with OPD/H2O2 solution, and H2SO4, before absorbance readings at 490 nm.

[1] = target: T4, tPA binding to immobilized Hb-AGE (Homo sapiens, UniProt P68871+P69905); experiment: ELISA, influence of ellagic acid on tPA binding to immobilized Hb-AGE
T4 construct: purchased tPA: Boehringer Ingelheim (Actilyse); Hb: Sigma-Aldrich Hb: H7379
Description: Determination of the influence of ellagic acid on the binding of a suboptimal concentration of tPA to a refined concentration of immobilized Hb-AGE. Parameter: a fixed concentration of tPA, in PBS with 0.1% (v/v) Tween20, 10 mM εACA and 10% DMSO, mixed with ellagic acid. As a positive control, tPA in binding buffer with 10% DMSO was used. This binding was set to 100% and values obtained after co-incubation of Hb-AGE with tPA with ellagic acid, were scaled accordingly. Binding experiments were performed in single wells, in a duplicate experiment. Binding data obtained with this duplicate experiment was averaged. Enhancement of tPA binding was arbitrarily set to values>100%. Inhibition of tPA binding to misfolded Hb-AGE was arbitrarily set to values smaller than 50%. With the chosen experimental lay-out, it can not be distinguished whether ellagic acid influences the interaction between tPA and Hb-AGE by binding to Hb-AGE only or by binding to tPA only or by binding to both tPA and Hb-AGE.
In a next series of experiments, the ability of ellagic acid that interacts with tPA and/or Hb-AGE, to bind to immobilized fb-AGE, heat-denatured misfolded ovalbumin and amyloid-β was analyzed. In a first experiment, the coated misfolded Hb-AGE was first incubated with ellagic acid. After washing, tPA binding was assessed. Similar binding assays are performed with misfolded OVA and Aβ. […]

Hb-AGE = target: T5, Hb-AGE (Homo sapiens, UniProt P68871+P69905); experiment: Binding of Hb-AGE from solution to immobilized ellagic acid; conditions: Hb-AGE 10 μg/ml, background subtracted
T5 construct: purchased Sigma-Aldrich H7379
Description: as §3

tPA binding to DOVA = target: T6, tPA binding to DOVA (Gallus gallus, UniProt P01012); experiment: ELISA, influence of ellagic acid on tPA binding to immobilized misfolded ovalbumin
T6 construct: purchased tPA: Boehringer Ingelheim (Actilyse); OVA: Sigma OVA: A-7641
T6 sequence (P01012 2-386 limits assumed): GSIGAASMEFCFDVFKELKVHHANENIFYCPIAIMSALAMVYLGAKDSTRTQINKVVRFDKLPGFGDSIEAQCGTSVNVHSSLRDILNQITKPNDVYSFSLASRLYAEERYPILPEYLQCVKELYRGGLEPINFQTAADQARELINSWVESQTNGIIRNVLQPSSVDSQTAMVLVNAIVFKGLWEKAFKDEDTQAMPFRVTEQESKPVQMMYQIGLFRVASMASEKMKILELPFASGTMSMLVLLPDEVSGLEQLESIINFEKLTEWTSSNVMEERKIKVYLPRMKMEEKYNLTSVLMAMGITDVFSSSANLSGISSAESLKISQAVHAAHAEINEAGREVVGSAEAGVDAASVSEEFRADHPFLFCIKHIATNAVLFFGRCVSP
Description: In a next series of experiments, the ability of ellagic acid that interacts with tPA and/or Hb-AGE, to bind to immobilized fb-AGE, heat-denatured misfolded ovalbumin and amyloid-β was analyzed. In a first experiment, the coated misfolded Hb-AGE was first incubated with ellagic acid. After washing, tPA binding was assessed. Similar binding assays are performed with misfolded OVA and Aβ. Finally, concentration series of ellagic acid are used in the binding studies.
Ellagic acid was co-incubated with 0.5 nM tPA. Controls: 1 mM ThT with 0.5 nM tPA, 0.5 mM CR with 0.5 nM tPA, 0.5 nM tPA without compound and buffer without tPA. Next, coated ELISA plates were first -pre-incubated with ellagic acid (for 30 minutes) followed by tPA incubation (for 30 minutes). For similar ELISA's with DOVA and Aβ(1-40) E22Q, 1 μg/ml DOVA or Aβ was coated and overlayed with 80 nM tPA. Subsequently, DOVA or Aβ coated wells and buffer-coated control wells were first incubated with 500 μg/ml ellagic acid, followed by an overlay with tPA.

[2] = tested on: tPA binding to amyloid-like aggregates; conditions: ELISAs; patent application P57716EP00 and unpublished data; cited from earlier work
[3] = target: T7, LRP cl-IV binding to BSA-AGE (Bos taurus, UniProt P02769); experiment: ELISA, interference with LRP cl-IV binding to BSA-AGE; parameters: species or system human; conditions: concentration series, 50 times diluted LRP cl-IV medium
T7 construct: made in house; host or cells: HEK293E/S (LRP cl-IV, culture supernatant)
Description: To test whether amyloid-like crossbeta structure binding compounds tPA, Congo red, Thioflavin T and Thioflavin S interfere with LRP cl-IV binding to BSA-AGE, concentration series of the potential inhibitory amyloid binding moieties were tested in the presence of 50 times diluted medium containing LRP cl-IV. The following inhibitors were used: tPA, Congo red, Thioflavin T (ThT) and Thioflavin S (ThS). As a control to tPA, K2P tPA, which lacks the amyloid-like misfolded protein binding finger domain, was included in the analyses. The influence of tPA and K2P tPA was tested in the presence of 10 mM ε-amino caproic acid to avoid binding of the kringle2 domain of tPA and K2P tPA to lysine- and arginine residues. Binding buffer and K2P tPA serve as negative controls in these inhibition studies. The concentration series was measured in triplicate, the values averaged and standard deviations calculated. Background signals obtained with buffer-coated wells were subtracted. Signals obtained with binding of LRP cluster IV to BSA-AGE was set arbitrarily to a reference binding of 100% and signals obtained with the concentration series of misfolded protein binding moieties and K2P tPA were calculated based on this set reference.

platelets = experiment: Aggregometric assay with washed platelets; format: cell-based, human; conditions: 200 μM
Description: The presence of protein(s) and/or peptide(s) with amyloid-like misfolded protein conformation on activated blood platelets was tested with washed platelets in an aggregometric assay. Freshly drawn human aspirin free blood was mixed gently with citrate buffer to avoid coagulation. Blood was spinned for 15 minutes at 150*g at 20° C. and supernatant was collected; platelet rich plasma (PRP). […] After spinning down the platelets upon centrifugation for 15 minutes at 330*g at 20° C., the pellet was resuspended in HEPES-Tyrode buffer pH 6.5. Prostacyclin was added to a final concentration of 10 ng/ml, and the solution was centrifuged for 15 minutes at 330*g at 20° C., with a soft brake. The pellet was resuspended in HEPES-Tyrode buffer pH 7.2 in a way that the final platelet number was adjusted to 200,000/μl. Platelets were kept at 37° C. for at least 30 minutes, before use in the assays, to ensure that they were in the resting state.
For the aggregometric assays, 400 μl platelet solution was added to a glass tube with 100 μl containing the agonist of interest, fibrinogen and CaCl2. Final concentrations of fibrinogen and CaCl2 were 0.5 mg/ml and 3 mM, respectively. A stirring magnet was added and the apparatus (Whole-blood aggregometer, Chrono-log, Havertown, Pa., USA) was blanked. Aggregation was followed in time by measuring the absorbance of the solution, that will decrease in time upon platelet aggregation. As a positive control, 0.5 U/ml thrombin was used, or TRAP. Aggregation was followed for 10 minutes. Influence of 200 μM Thioflavin T, 200 μM Congo red or 1 μM tPA on platelet aggregation was analyzed.

T4 sequence (P69905 2-142 limits assumed): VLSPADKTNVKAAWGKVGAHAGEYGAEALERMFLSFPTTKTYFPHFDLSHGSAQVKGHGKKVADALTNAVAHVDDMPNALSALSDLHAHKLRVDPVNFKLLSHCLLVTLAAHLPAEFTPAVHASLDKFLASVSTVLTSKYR
T4 sequence (P68871 2-147 limits assumed): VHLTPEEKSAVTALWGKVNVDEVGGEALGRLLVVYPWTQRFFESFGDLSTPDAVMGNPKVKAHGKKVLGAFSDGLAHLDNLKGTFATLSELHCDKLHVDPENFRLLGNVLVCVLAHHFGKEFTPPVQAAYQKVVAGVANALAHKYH
T5 sequence (P69905 2-142 limits assumed): as the sequence (P69905 2-142 limits assumed) above
T5 sequence (P68871 2-147 limits assumed): as the sequence (P68871 2-147 limits assumed) above
T7 sequence (P02769 25-607): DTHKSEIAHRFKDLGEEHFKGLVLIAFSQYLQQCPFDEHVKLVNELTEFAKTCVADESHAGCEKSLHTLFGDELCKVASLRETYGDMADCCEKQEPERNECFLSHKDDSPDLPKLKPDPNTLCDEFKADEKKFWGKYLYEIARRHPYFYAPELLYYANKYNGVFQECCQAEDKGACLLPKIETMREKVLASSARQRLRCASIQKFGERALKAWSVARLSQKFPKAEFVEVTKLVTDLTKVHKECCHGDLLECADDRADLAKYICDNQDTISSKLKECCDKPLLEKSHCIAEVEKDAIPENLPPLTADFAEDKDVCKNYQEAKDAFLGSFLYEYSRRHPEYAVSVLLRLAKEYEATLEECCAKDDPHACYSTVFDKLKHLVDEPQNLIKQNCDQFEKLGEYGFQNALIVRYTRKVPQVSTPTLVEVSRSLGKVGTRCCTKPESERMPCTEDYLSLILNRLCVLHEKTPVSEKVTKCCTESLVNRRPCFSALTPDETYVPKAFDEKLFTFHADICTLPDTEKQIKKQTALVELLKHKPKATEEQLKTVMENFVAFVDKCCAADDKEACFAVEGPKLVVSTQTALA
T1 sequence (P02751 182-276 limits assumed): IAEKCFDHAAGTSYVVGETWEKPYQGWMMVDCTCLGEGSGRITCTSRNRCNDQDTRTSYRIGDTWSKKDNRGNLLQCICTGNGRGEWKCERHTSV
T2 sequence (P11021 19-654): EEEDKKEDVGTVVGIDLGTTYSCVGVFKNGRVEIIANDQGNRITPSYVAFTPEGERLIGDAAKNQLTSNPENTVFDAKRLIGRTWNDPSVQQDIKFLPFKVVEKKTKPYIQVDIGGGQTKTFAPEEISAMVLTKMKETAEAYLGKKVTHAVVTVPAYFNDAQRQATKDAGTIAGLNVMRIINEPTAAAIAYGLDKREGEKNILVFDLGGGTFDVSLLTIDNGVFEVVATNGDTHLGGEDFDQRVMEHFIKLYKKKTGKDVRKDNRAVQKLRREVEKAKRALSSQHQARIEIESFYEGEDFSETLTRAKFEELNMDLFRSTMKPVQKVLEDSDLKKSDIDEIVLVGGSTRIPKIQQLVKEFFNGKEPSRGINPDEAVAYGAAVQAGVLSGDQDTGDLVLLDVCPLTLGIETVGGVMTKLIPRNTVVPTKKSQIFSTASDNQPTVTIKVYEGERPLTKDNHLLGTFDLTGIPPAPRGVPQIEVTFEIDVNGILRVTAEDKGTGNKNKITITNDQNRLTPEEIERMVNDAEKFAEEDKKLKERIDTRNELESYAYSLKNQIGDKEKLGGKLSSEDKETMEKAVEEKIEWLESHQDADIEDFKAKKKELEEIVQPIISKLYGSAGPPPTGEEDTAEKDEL

## Freshly dissolved lysozyme: lysozyme (ICN Biochemicals)
Fibronectin F4,5
  affinity for fibronectin F4,5: high affinity

## heat-denatured BSA: heat-denatured bovine serum albumin
BiP
  binding of BiP: not

## O=c1oc2c(O)c(O)cc3c(=O)oc4c(O)c(O)cc1c4c23 [ellagic acid]
Aβ
  Signal: 0.054 a.u.
[1]; ELISA
  influence on tPA binding to Hb-AGE: stimulator of tPA binding
[1]; pre-incubation of coated Hb-AGE or misfolded OVA, then tPA
  direct interaction with immobilized misfolded protein: binds directly to misfolded protein
Hb-AGE; Greiner Microlon
  Signal: 0.13 a.u.
Hb-AGE; Nunc Maxisorp
  Signal: 0.15 a.u.
tPA binding to DOVA
  influence on tPA binding to DOVA: stimulator of tPA binding

## Cc1ccc2c(c1)sc(-c1ccc(N(C)C)cc1)[n+]2C.[Cl-] [ThT, Thioflavin T]
[2]
  competition for tPA binding to amyloid-like aggregates: did not inhibit tPA binding at all
[3]
  influence on binding of LRP cl-IV to BSA-AGE: do not interfere
platelets
  inhibition of platelet aggregation: up to 45%
